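1) Cells in 96-well plates. 2) Compound, 48 h, 5 concentrations. 3) Linear interpolation between surrounding doses. 4) Unreached endpoint = highest concentration. GI50: concentration for 50% inhibition of growth.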 The source made the active and inactive calls. Cut-off read from the data, not from the text of the source: active = GI50 up to about 1.1 µM and inactive = higher. Some results are limits rather than exact numbers.

Some test systems named below: T47D; SN12C; UACC-257; MCF7; SR; M14; MDA-MB-231; Malme-3M; OVCAR-8; RPMI-8226; RXF 393; SF-268; SNB-75; SK-MEL-5; CAKI-1; ACHN; Hs-578T; SK-OV-3; CCRF-CEM.
Common to all, as to assay: NCI anticancer screen, dose series, 48 h

Consider `O=[As](O)(O)c1ccc(NCc2ccccc2)cc1`, for which the GI50 in the experiment on T47D, in the experiment with SN12C, in the experiment on UACC-257, with MCF7, in the experiment with SR and with M14 was > 100 µM (inactive) in each case. Also, the GI50 in the experiment on MDA-MB-231, in the experiment on Malme-3M, in the experiment on OVCAR-8, in the experiment with RPMI-8226, with RXF 393 and in the experiment on SF-268 was > 100 µM (inactive) throughout. In addition, the GI50 was > 100 µM (inactive) with SNB-75; > 100 µM (inactive) with SK-MEL-5; > 100 µM (inactive) in the experiment on CAKI-1; > 100 µM (inactive) in the experiment with ACHN; 58.9 µM (inactive) in the experiment on Hs-578T.

Regarding `CCCCC/C=C1\CC(CO)(COC(=O)CC(C(C)C)C(C)C)OC1=O` (stereo unspecified), the GI50 was 19.1 µM (inactive) with SK-OV-3; 23.1 µM (inactive) in the experiment with T47D; 16.1 µM (inactive) in the experiment on SN12C; 21.1 µM (inactive) with UACC-257; 21.6 µM (inactive) in the experiment with MCF7; 28.6 µM (inactive) with SR. For the same compound, the GI50 in the experiment on M14 was 14.6 µM (inactive); with MDA-MB-231, 17.9 µM (inactive); with Malme-3M it was 15.3 µM (inactive); in the experiment on OVCAR-8 it was 18.2 µM (inactive); in the experiment with RXF 393 it was 17.9 µM (inactive); with SF-268, 17.9 µM (inactive). Further, the GI50 with CCRF-CEM is 11.8 µM (inactive); in the experiment with SNB-75 it was 12.1 µM (inactive); in the experiment on SK-MEL-5, 11 µM (inactive); in the experiment on CAKI-1, 9.42 µM (inactive); in the experiment on ACHN it was 13 µM (inactive); in the experiment on Hs-578T it was 4.62 µM (inactive).

Regarding `Cc1cc(C)c2c(c1)C/C(=C\c1ccccc1C(=O)O)C2=O`, the GI50 in the experiment on T47D is 35.2 µM (inactive); with SN12C, > 100 µM (inactive); with UACC-257 it was > 100 µM (inactive); in the experiment on MCF7, 78.2 µM (inactive); in the experiment on SR it was > 100 µM (inactive); in the experiment on M14, > 100 µM (inactive). The GI50 with MDA-MB-231 was > 100 µM (inactive); in the experiment on Malme-3M it was > 100 µM (inactive); with OVCAR-8 it was 57 µM (inactive); in the experiment with RPMI-8226, > 100 µM (inactive); in the experiment on RXF 393 it was 51.9 µM (inactive); in the experiment on SF-268 it was > 100 µM (inactive). Moreover, the GI50 with CCRF-CEM was 34.6 µM (inactive); in the experiment with SNB-75, 75.3 µM (inactive); in the experiment with SK-MEL-5 it was 82.4 µM (inactive); in the experiment with CAKI-1, > 100 µM (inactive); in the experiment with ACHN, > 100 µM (inactive); with Hs-578T it was > 100 µM (inactive).

For `O=C1CC2C=CC(O)C(C1)C2` (stereo unspecified), the GI50 was > 100 µM (inactive) in the experiment with SK-OV-3; > 100 µM (inactive) in the experiment on T47D; > 100 µM (inactive) in the experiment with SN12C; > 100 µM (inactive) in the experiment with UACC-257; > 100 µM (inactive) with MCF7; < 0.01 µM (active) with SR. The GI50 in the experiment with M14 was > 100 µM (inactive); in the experiment with MDA-MB-231 it was > 100 µM (inactive); with Malme-3M it was > 100 µM (inactive); in the experiment with OVCAR-8, > 100 µM (inactive); with RPMI-8226, > 100 µM (inactive); in the experiment with RXF 393 it was 3.49 µM (inactive). For the same compound, the GI50 in the experiment on SF-268 was > 100 µM (inactive); in the experiment with CCRF-CEM, > 100 µM (inactive); with SNB-75, 72.6 µM (inactive); with ACHN, > 100 µM (inactive); with Hs-578T, 21 µM (inactive).

For the compound `C=C1CC2(CCOc3ccc(Cl)cc32)OC1=O` (stereo unspecified), the GI50 is 13.1 µM (inactive) in the experiment with SK-OV-3; 4.93 µM (inactive) with T47D; 7.69 µM (inactive) in the experiment with SN12C; 5.74 µM (inactive) in the experiment on UACC-257; 0.598 µM (active) in the experiment on MCF7; 2.37 µM (inactive) with SR. Moreover, the GI50 in the experiment with M14 was 2.54 µM (inactive); with MDA-MB-231, 6.44 µM (inactive); in the experiment on OVCAR-8, 4.59 µM (inactive); in the experiment on RPMI-8226 it was 0.667 µM (active); in the experiment with RXF 393, 2.23 µM (inactive); in the experiment on SF-268 it was 6.22 µM (inactive). Further, the GI50 in the experiment with CCRF-CEM is 1.45 µM (inactive); with SNB-75, 3.61 µM (inactive); with SK-MEL-5, 5.02 µM (inactive); in the experiment on CAKI-1, 2.33 µM (inactive); with ACHN, 4.86 µM (inactive); in the experiment with Hs-578T, 0.979 µM (active).

Regarding `CN(CCNC(=O)c1cn(C)c2c1ccc1cc(Cl)ccc12)CCNC(=O)c1cn(C)c2c1ccc1cc(Cl)ccc12`, the GI50 is 1.56 µM (inactive) in the experiment on SK-OV-3; 2.13 µM (inactive) in the experiment on T47D; 1.78 µM (inactive) in the experiment on SN12C; 6.38 µM (inactive) with UACC-257; 1.86 µM (inactive) in the experiment with MCF7; 5.11 µM (inactive) in the experiment with SR. The GI50 in the experiment on M14 was 1.59 µM (inactive); with MDA-MB-231, 6.62 µM (inactive); with Malme-3M, 2.21 µM (inactive); in the experiment with OVCAR-8, 6 µM (inactive); with RXF 393, 1.57 µM (inactive); in the experiment on SF-268 it was 1.77 µM (inactive). The GI50 is 5.74 µM (inactive) with CCRF-CEM; 1.68 µM (inactive) in the experiment with SNB-75; 10.9 µM (inactive) in the experiment on SK-MEL-5; 1.6 µM (inactive) in the experiment with CAKI-1; 5.25 µM (inactive) in the experiment on ACHN; 1.94 µM (inactive) in the experiment with Hs-578T.

`Oc1ccc(SCc2ccc(NCc3ccccc3)cc2)cc1`: the GI50 in the experiment on SK-OV-3 was 62.8 µM (inactive); in the experiment on T47D, 14.7 µM (inactive); with SN12C, 24.5 µM (inactive); with UACC-257, 29.9 µM (inactive); with MCF7, 29.8 µM (inactive); in the experiment on SR it was 13.1 µM (inactive). In addition, the GI50 was 19.4 µM (inactive) in the experiment on M14; 39.9 µM (inactive) in the experiment with MDA-MB-231; 31.7 µM (inactive) in the experiment with Malme-3M; 37.8 µM (inactive) in the experiment with OVCAR-8; 19.9 µM (inactive) in the experiment with RXF 393; 39.4 µM (inactive) in the experiment on SF-268. The GI50 is 1.24 µM (inactive) with CCRF-CEM; 21.6 µM (inactive) in the experiment with SNB-75; 20.7 µM (inactive) with SK-MEL-5; 19.6 µM (inactive) in the experiment on CAKI-1; 24 µM (inactive) in the experiment on ACHN; 53 µM (inactive) in the experiment with Hs-578T.

As to `CN1CCN(C(=S)N(C(=O)c2cccs2)C2CCCCC2)CC1`, the GI50 in the experiment on T47D, in the experiment with SN12C, in the experiment with UACC-257, in the experiment on MCF7, with SR and in the experiment with M14 was > 100 µM (inactive) in each case. Besides, the GI50 with MDA-MB-231, in the experiment with Malme-3M, in the experiment on OVCAR-8, in the experiment with RPMI-8226, in the experiment with RXF 393 and with SF-268 was > 100 µM (inactive) throughout. The GI50 in the experiment on CCRF-CEM was > 10 µM (inactive); with SNB-75 it was 89.9 µM (inactive); with SK-MEL-5 it was > 100 µM (inactive); with ACHN, > 100 µM (inactive); in the experiment on Hs-578T, > 100 µM (inactive).

`COP(=O)(Cc1ccc(/C=C/C#N)o1)OC`: the GI50 in the experiment with SK-OV-3, with T47D, in the experiment on MCF7, in the experiment with SR, with M14 and with MDA-MB-231 was > 100 µM (inactive) in each case. The GI50 in the experiment on Malme-3M was 47.2 µM (inactive); with OVCAR-8, > 100 µM (inactive); in the experiment on RPMI-8226, > 100 µM (inactive); in the experiment with RXF 393 it was > 100 µM (inactive); in the experiment with SF-268, > 100 µM (inactive); in the experiment on CCRF-CEM, > 100 µM (inactive). The figures for the GI50 in the experiment with SNB-75 and in the experiment with Hs-578T were > 100 µM (inactive) and 62.2 µM (inactive), respectively.

On to `CCCCCCCCCCCCCCNC(=O)CCC(NC(=O)c1ccc(N(C)Cc2cnc3nc(N)nc(N)c3n2)cc1)C(=O)NCCCCCCCCCCCCCC` (stereo unspecified), for which the GI50 in the experiment on SK-OV-3 was 10.4 µM (inactive); with T47D, 8.51 µM (inactive); in the experiment on SN12C, 9.68 µM (inactive); with UACC-257, 10.7 µM (inactive); in the experiment on MCF7, 4.48 µM (inactive); in the experiment with SR it was 0.139 µM (active). Besides, the GI50 in the experiment with M14 was 0.441 µM (active); in the experiment on MDA-MB-231, 8.73 µM (inactive); in the experiment with OVCAR-8 it was 4.36 µM (inactive); in the experiment on RPMI-8226, 3.07 µM (inactive); with RXF 393, 11.6 µM (inactive); in the experiment on SF-268, 2.49 µM (inactive). Besides, the GI50 was 0.773 µM (active) in the experiment on CCRF-CEM; 14.3 µM (inactive) in the experiment on SNB-75; 1.77 µM (inactive) with SK-MEL-5; 10.4 µM (inactive) in the experiment on CAKI-1; 6.38 µM (inactive) with ACHN; 8.39 µM (inactive) in the experiment with Hs-578T.

Turning to `CN(C)/C=N/CCN1CCOCC1`, the GI50 in the experiment with SK-OV-3, in the experiment on T47D, in the experiment with SN12C, with UACC-257, with MCF7 and in the experiment with SR was > 100 µM (inactive) throughout. Moreover, the GI50 with M14, with MDA-MB-231, with Malme-3M, with OVCAR-8, with RPMI-8226 and in the experiment with RXF 393 was > 100 µM (inactive) each time. For the same compound, the GI50 in the experiment with SF-268 was > 100 µM (inactive); in the experiment with CCRF-CEM it was > 100 µM (inactive); in the experiment on SNB-75 it was 97.7 µM (inactive); in the experiment on SK-MEL-5, > 100 µM (inactive); in the experiment with ACHN, > 100 µM (inactive); in the experiment with Hs-578T, > 100 µM (inactive).

(Values after ChEMBL document CHEMBL1201862, “PubChem BioAssay data set” (2004).)
